Laboratory results reported in BigSolDB 2.1.

O=c1cc(CO)occ1O
Settings	solubility (mole fraction)
in 1,4-dioxane, 288.15 K	0.00698
in 1,4-dioxane, 293.15 K	0.0086
in 1,4-dioxane, 298.15 K	0.0103
in 1,4-dioxane, 303.15 K	0.0121
in 1,4-dioxane, 308.15 K	0.0153
in 1,4-dioxane, 313.15 K	0.018
in 1,4-dioxane, 318.15 K	0.0209
in 2-ethoxyethanol, 278.15 K	0.0134
in 2-ethoxyethanol, 283.15 K	0.015
in 2-ethoxyethanol, 288.15 K	0.0177
in 2-ethoxyethanol, 293.15 K	0.0204
in 2-ethoxyethanol, 298.15 K	0.0233
in 2-ethoxyethanol, 303.15 K	0.0261
in 2-ethoxyethanol, 308.15 K	0.03
in 2-ethoxyethanol, 313.15 K	0.034
in 2-ethoxyethanol, 318.15 K	0.0381
in 2-ethoxyethanol, 323.15 K	0.0435
in 2-methoxyethanol, 278.15 K	0.0181
in 2-methoxyethanol, 283.15 K	0.0214
in 2-methoxyethanol, 288.15 K	0.0252
in 2-methoxyethanol, 293.15 K	0.0287
in 2-methoxyethanol, 298.15 K	0.0331
in 2-methoxyethanol, 303.15 K	0.0377
in 2-methoxyethanol, 308.15 K	0.0431
in 2-methoxyethanol, 313.15 K	0.0491
in 2-methoxyethanol, 318.15 K	0.0559
in 2-methoxyethanol, 323.15 K	0.0625
in DMAc, 278.15 K	0.148
in DMAc, 283.15 K	0.157
in DMAc, 288.15 K	0.165
in DMAc, 293.15 K	0.174
in DMAc, 298.15 K	0.184
in DMAc, 303.15 K	0.194
in DMAc, 308.15 K	0.205
in DMAc, 313.15 K	0.216
in DMAc, 318.15 K	0.228
in DMAc, 323.15 K	0.24
in DMF, 278.15 K	0.0977
in DMF, 283.15 K	0.106
in DMF, 288.15 K	0.114
in DMF, 293.15 K	0.123
in DMF, 298.15 K	0.135
in DMF, 303.15 K	0.147
in DMF, 308.15 K	0.157
in DMF, 313.15 K	0.168
in DMF, 318.15 K	0.18
in DMF, 323.15 K	0.193
in DMSO, 293.15 K	0.238
in DMSO, 298.15 K	0.249
in DMSO, 303.15 K	0.259
in DMSO, 308.15 K	0.268
in DMSO, 313.15 K	0.28
in DMSO, 318.15 K	0.292
in DMSO, 323.15 K	0.303
in DMSO, 328.15 K	0.316
in DMSO, 333.15 K	0.331
in NMP, 278.15 K	0.17
in NMP, 283.15 K	0.179
in NMP, 288.15 K	0.185
in NMP, 293.15 K	0.193
in NMP, 298.15 K	0.201
in NMP, 303.15 K	0.208
in NMP, 308.15 K	0.216
in NMP, 313.15 K	0.223
in NMP, 318.15 K	0.232
in NMP, 323.15 K	0.241
in acetic acid, 293.15 K	0.0139
in acetic acid, 298.15 K	0.0169
in acetic acid, 303.15 K	0.0204
in acetic acid, 308.15 K	0.0246
in acetic acid, 313.15 K	0.0293
in acetic acid, 318.15 K	0.0353
in acetic acid, 323.15 K	0.0425
in acetic acid, 328.15 K	0.0511
in acetic acid, 333.15 K	0.0613
in acetone, 278.15 K	0.00224
in acetone, 283.15 K	0.00276
in acetone, 288.15 K	0.00324
in acetone, 293.15 K	0.00383
in acetone, 298.15 K	0.00455
in acetone, 303.15 K	0.00556
in acetone, 308.15 K	0.00686
in acetone, 313.15 K	0.008
in acetone, 318.15 K	0.00932
in acetone, 323.15 K	0.0106
in ethanol, 278.15 K	0.0031
in ethanol, 283.15 K	0.00374
in ethanol, 288.15 K	0.00459
in ethanol, 293.15 K	0.00595
in ethanol, 298.15 K	0.00739
in ethanol, 303.15 K	0.00893
in ethanol, 308.15 K	0.0108
in ethanol, 313.15 K	0.013
in ethanol, 318.15 K	0.0158
in ethanol, 323.15 K	0.0191
in ethyl acetate, 278.15 K	0.000804
in ethyl acetate, 283.15 K	0.00105
in ethyl acetate, 288.15 K	0.00137
in ethyl acetate, 293.15 K	0.00169
in ethyl acetate, 298.15 K	0.00201
in ethyl acetate, 303.15 K	0.00242
in ethyl acetate, 308.15 K	0.00296
in ethyl acetate, 313.15 K	0.00338
in ethyl acetate, 318.15 K	0.00411
in ethyl acetate, 323.15 K	0.00497
in methanol, 278.15 K	0.00492
in methanol, 283.15 K	0.00606
in methanol, 288.15 K	0.00737
in methanol, 293.15 K	0.00891
in methanol, 298.15 K	0.011
in methanol, 303.15 K	0.0132
in methanol, 308.15 K	0.0156
in methanol, 313.15 K	0.0189
in methanol, 318.15 K	0.0223
in methanol, 323.15 K	0.0267
in n-propanol, 278.15 K	0.00225
in n-propanol, 283.15 K	0.00281
in n-propanol, 288.15 K	0.00339
in n-propanol, 293.15 K	0.00423
in n-propanol, 298.15 K	0.00524
in n-propanol, 303.15 K	0.00646
in n-propanol, 308.15 K	0.00782
in n-propanol, 313.15 K	0.00964
in n-propanol, 318.15 K	0.0116
in n-propanol, 323.15 K	0.0139
in water, 278.15 K	0.00216
in water, 283.15 K	0.00276
in water, 288.15 K	0.00353
in water, 293.15 K	0.0043
in water, 298.15 K	0.00553
in water, 303.15 K	0.00679
in water, 308.15 K	0.00873
in water, 313.15 K	0.0113
in water, 318.15 K	0.0143
in water, 323.15 K	0.0185
